Measurements published in patent publication US20030176494A1, “Novel coumarin and chromene compounds and methods of preparation and use thereof for treating or preventing viral infections” (priority 2001, published 2003).
Values after ≈ are worked out from the molar mass of the structure shown. Like-named read-outs stand apart in the source and are kept apart here.

Tests used:
[1] = tested on: Respiratory Syncytial Virus; assay: Respiratory syncytial virus antiviral assay (CPE inhibition, neutral red uptake); assay type: cell-based, Respiratory syncytial virus strain Utah 89; conditions: human respiratory syncytial virus
HIV = assay: Anti-HIV evaluation by MTT-tetrazolium method (inhibition of CPE in MT-2 / CEM-SS cells); assay type: cell-based; conditions: Human immunodeficiency virus 1, CEM-SS; read-out: Antiviral Activities (EC50) HIV
Method: This example illustrates the anti-HIV activity of various coumarin and chromene compounds which were evaluated using the published MTT-tetrazolium methods^8. Retroviral agents AZT and DDC were used as controls for comparison purposes.
The cells used for screening were the MT-2 and the human T4-lymphoblastoid cell line, CEM-SS, and were grown in RPMI 1640 medium supplemented with 10% fetal (v/v) heat-inactivated fetal calf serum and also containing 100 units/mL penicillin, 100 μg/mL streptomycin, 25 mM HEPES and 20 μg/mL gentamicin. The medium used for dilution of drugs and maintenance of cultures during the assay was the same as above. The HTLV-IIIB and HTLV-RF were propagated in CEM-SS. The appropriate amounts of the pure compounds for anti-HIV evaluations were dissolved in DMSO, then diluted in medium to the desired initial concentration. The concentrations (M medium) employed were […]; 0.001 μM; 0.0032 μM; 0.01 μM; 0.032 μM; 0.1 μM; 0.32 μM; 1 μM; 3.2 μM; 10 μM; 32 μM; and 100 μM. Each dilution was added to plates in the amount of 100 μL/well. Drugs were tested in triplicate wells per dilution with infected cells while in duplicate wells per dilution with uninfected cells for evaluation of cytotoxicity. On day 6 (CEM-SS cells) and day 7 (MT-2 cells) post-infection, the viable cells were measured with a tetrazolium salt, MTT (5 mg/mL), added to the test plates. A solution of 20% SDS in 0.001 N HCl is used to dissolve the MTT formazan produced. The optical density value was a function of the amount of formazan produced which was proportional to the number of viable cells. The percent inhibition of CPE per drug concentration was measured as a test over control and expressed in percent (T/C %).

Rhinovirus = Rhinovirus antiviral assay (CPE inhibition, neutral red uptake, virus yield); assay type: cell-based; conditions: Enterovirus
Measles Virus = assay: Measles virus antiviral assay (CPE inhibition, neutral red uptake, virus yield); assay type: cell-based, Measles virus strain CC; conditions: Measles morbillivirus
VZV = VZV plaque reduction assay in human foreskin fibroblast cells; assay type: cell-based, Varicella Zoster Virus (Ellen strain); conditions: Human alphaherpesvirus 3, Fibroblast; read-out: Antiviral Activities (EC50) VZV
Method: [table] Two days prior to use, HFF cells are plated into six-well plates and incubated at 37° C. with 5% CO2 and 90% humidity. On the date of assay, the drug is made up at twice the desired concentration in 2×MEM and then serially diluted 1:5 in 2×MEM using six concentrations of drug. […] The media is then aspirated from the wells and 0.2 mL of virus is added to each well in duplicate with 0.2 mL of media being added to drug toxicity wells. The plates are then incubated for one hour with shaking every fifteen minutes. […] The drug agarose mixture is applied to each well in 2 mL volume and the plates then incubated for three days, after which the cells were stained with a 1.5% solution of neutral red. At the end of 4-6 hr incubation period, the stain is aspirated, and plaques counted using a stereomicroscope at 10× magnification. The procedure is essentially the same as for the HSV plaque assay described above with two exceptions: 1. After addition of the drug, the plates are incubated for ten days. 2.

EBV = EBV assay: superinfection of Raji or Daudi cells with P3HR-1, immunofluorescence for EA and VCA; assay type: cell-based, Epstein-Barr Virus (P3HR-1); conditions: human gammaherpesvirus 4; read-out: Antiviral Activities (EC50) EBV
Excerpt: There are two prototypes of infectious EBV. One is exemplified by the virus derived from supernatant fluids of the P3HR-1cell line. This cell line produces nontransforming virus that causes the production of early antigen (EA) after primary infection or superinfection of B cell lines. The other prototype is exemplified by the B-95-8 virus. This virus immortalized cord blood lymphocytes and induced tumors in marmosets. […] The virus used in our assays is P3HR-1.
Ramos is an exceptional B cell line derived from Burkitt's lymphoma tumor but containing no detectable EBV genome copies and is EBNA negative. Ramos/AW was obtained by in vitro infection of Ramos with the P3HR-1 virus and contains one resident EBV genome copy/cell. Raji is a Burkitt's lymphoma cell line containing 60 EBV genomes/cell, and will be the primary cell used for screening antiviral activity against EBV EA expression. Daudi is a low level producer that contains 152 EBV genome copies/cell. It spontaneously expresses EBV EA in 0.25%-0.5% of the cells. It will be used in follow-up studies to confirm activity. These cell lines respond to superinfection by EBV by expressing EA(D), EA(R), and VCA. All cell lines are maintained in RPMI-1640 medium supplemented by 10% FCS, L-glutamine and 100 μg/mL gentamicin. The cultures are fed twice weekly and the cell concentration adjusted to 3×10^5/mL. The cells are kept at 37° C. in a humidified atmosphere with 5% CO2.
Cells are infected with the P3HR-1 strain of EBV and the drugs to be tested are added after adsorption (45 minutes at 37° C.) and washing of the cell cultures. The cultures are incubated for two days in complete medium to allow viral gene expression. Following the 48 hr incubation period, the number of cells of each sample are counted and smears made. Monoclonal antibodies to the different EA components and VCA are then added to the cells incubated and washed. This is followed by a fluorescein conjugated rabbit anti-mouse Ig antibody; and the number of fluorescence positive cells in the smears are counted. The total number of cells in the cultures positive for EA or VCA are then calculated and compared.

HBV = HBV replication in cultures of 2.2.15 cells (HBV DNA blot hybridization); assay type: cell-based
Method: Test compounds are then added daily for a continuous 9 day period. Culture medium (changed daily during the treatment period) is collected and stored for analysis of extracellular (virion) HBV DNA after 0, 3, 6, and 9 days of treatment. Treated cells are lysed 24 hours following day 9 of treatment for the analysis of intracellular HBV genomic forms. HBV DVA is then analyzed in a quantitative and qualitative manner for overall levels of HBV DNA (both extracellular and intracellular DNA) and the relative rate of HBV replication (intracellular DNA).
Both intracellular and extracellular HBV DNA are analyzed in order to (i) allow for verification of compound efficacy and (ii) provide possible data on the target site in the HBV replication pathway for the compound from examination of the pattern of viral replicative forms. The culture medium is changed daily during the treatment period to (i) prevent the buildup of potentially toxic metabolites derived from test compounds and (ii) provide an analysis of HBV virion production during discrete 24-hour intervals which enables a quantitative comparison of any effect on virion production.
The analysis of HBV DNA is performed using blot hybridization techniques (Southern and slot blot) and [^32P]-labeled HBV-specific probes. HBV DNA levels are measured by comparison to known amounts of HBV DNA standards applied to every nitrocellulose membrane (gel or slot blot). An AMBIS beta scanner, which measures the radioactive decay of the hybridized probes directly from the nitrocellulose membranes, is used for the quantitative analysis. Standard curves, generated by multiple analyses, are used to correlate CPM measurements made by the beta scanner with relative levels of target HBV DNA. The levels of HBV virion DNA released into the culture medium are analyzed by a slot blot hybridization procedure. HBV DNA levels are then compared to those at Day 0 to determine the effect of drug treatment.
The levels of RI and episomal monomers are used as an indicator of the relative level of HBV replication. Integrated HBV DNA is used to normalize the relative amounts of DNA in each lane because the levels of this class of HBV DNA would be expected to remain constant on a per cell basis. […] Inhibition of HBV DNA replication is indicated by the loss of RI without changes in the level of integrated HBV DNA.

HIV-1 = conditions: cited from earlier work
[2] = tested on: pyridinone-resistant A17 virus; conditions: cited from earlier work
[3] = tested on: human T-lymphoblastic cells (CEM-SS); conditions: cited from earlier work
[4] = tested on: AZT-resistant G-9106 strain of HIV; conditions: cited from earlier work
[5] = CPE inhibition, read-out: Antiviral Activities (EC50) Respiratory Syncitial (CPE)
[6] = neutral red (NR) dye uptake, read-out: Antiviral Activities (EC50) Respiratory Syncitial (NR)
[7] = CPE inhibition, read-out: Antiviral Activities (EC50) Rhinovirus (CPE)
[8] = neutral red (NR) dye uptake, read-out: Antiviral Activities (EC50) Rhinovirus (NR)
[9] = CPE inhibition, read-out: Antiviral Activities (EC50) Measles (CPE)
[10] = neutral red (NR) dye uptake, read-out: Antiviral Activities (EC50) Measles (NR)
[11] = readout not stated, read-out: Antiviral Activities (EC50) Rhinovirus
[12] = Hepatitis B virus; read-out: Antiviral Activities (EC50) HBV

SMILES	EC50 [1, 5]	EC50 [1, 6]	EC50 (HIV)	EC50 (Rhinovirus; [7])	EC50 (Rhinovirus; [8])	EC50 (Measles Virus; [9])	EC50 (Measles Virus; [10])	EC50 (VZV)	EC50 (EBV)	EC50 (HBV; [12])	also measured
CCCc1cc(=O)oc2cc(OS(=O)(=O)c3ccc(C)cc3)cc(OS(=O)(=O)c3ccc(C)cc3)c12	2 µg/mL (≈ 3.78 µM)	1 µg/mL (≈ 1.89 µM)	> 3 µg/mL	2 µg/mL (≈ 3.78 µM)	1 µg/mL (≈ 1.89 µM)	3 µg/mL (≈ 5.68 µM)	1 µg/mL (≈ 1.89 µM)	> 20 µg/mL	> 50 µg/mL		EC50 (Measles Virus; read-out: Antiviral Activities (EC50) Measles (virus yield)): 3 µg/mL (≈ 5.68 µM); EC50 (HBV; Hepatitis B virus, read-out: Antiviral Activities (EC50) HBV): > 5 µg/mL
CCCc1cc(=O)oc2cc(OCC(C)(C)C(=O)OC)c3c(c12)OC(C)(C)C=C3			2 µg/mL (≈ 4.99 µM)			40 µg/mL (≈ 99.9 µM)	30 µg/mL (≈ 74.9 µM)	> 20 µg/mL	0.08 µg/mL (≈ 0.2 µM)	> 4 µg/mL	EC50 ([1]; readout not stated, read-out: Antiviral Activities (EC50) Respiratory Syncitial): > 100 µg/mL; EC50 (Rhinovirus; [11]): 25 µg/mL (≈ 62.4 µM)
CCCc1cc(=O)oc2c(C(=O)CC)c(O)c(C(=O)CC)c(O)c12	20 µg/mL (≈ 60.2 µM)	10 µg/mL (≈ 30.1 µM)	> 2 µg/mL			> 100 µg/mL	> 100 µg/mL	> 20 µg/mL	1.2 µg/mL (≈ 3.61 µM)	> 3 µg/mL	EC50 (Rhinovirus; [11]): 0.39 µg/mL (≈ 1.17 µM)
CCC/C(=C/C(=O)OC)c1c(O)c2c(c3c1OC(C)(C)[C@H](O)[C@H]3O)O[C@H](C)[C@@H](C)[C@@H]2O	100 µg/mL (≈ 229 µM)	> 100 µg/mL	> 2 µg/mL	20 µg/mL (≈ 45.8 µM)	5 µg/mL (≈ 11.5 µM)	10 µg/mL (≈ 22.9 µM)	20 µg/mL (≈ 45.8 µM)	> 20 µg/mL	> 50 µg/mL	> 4 µg/mL	
CCCc1cc(=O)oc2c3c(c4c(c12)OC(C)(C)[C@H](O)[C@H]4O)O[C@H](C)[C@@H](C)[C@@H]3O	> 100 µg/mL	100 µg/mL (≈ 247 µM)	> 2.5 µg/mL	20 µg/mL (≈ 49.4 µM)	50 µg/mL (≈ 124 µM)	10 µg/mL (≈ 24.7 µM)	100 µg/mL (≈ 247 µM)	> 100 µg/mL	> 50 µg/mL	> 4 µg/mL	
CCCc1cc(=O)oc2c3c(c4c(c12)OC(C)(C)C(O)C4O)O[C@H](C)[C@@H](C)[C@@H]3O (stereo partly drawn)	> 100 µg/mL	> 100 µg/mL	> 8 µg/mL	10 µg/mL (≈ 24.7 µM)	10 µg/mL (≈ 24.7 µM)	10 µg/mL (≈ 24.7 µM)	10 µg/mL (≈ 24.7 µM)	> 20 µg/mL	9.5 µg/mL (≈ 23.5 µM)	> 4 µg/mL	
CCCc1cc(=O)oc2c3c(c4c(c12)OC(C)(C)[C@H](O)[C@H]4OC(=O)c1cccc(Cl)c1)O[C@H](C)[C@@H](C)C3=O	3 µg/mL (≈ 5.55 µM)	4 µg/mL (≈ 7.39 µM)	> 3 µg/mL	0.1 µg/mL (≈ 0.185 µM)	0.1 µg/mL (≈ 0.185 µM)	3 µg/mL (≈ 5.55 µM)	0.4 µg/mL (≈ 0.739 µM)	3.5 µg/mL (≈ 6.47 µM)	29.2 µg/mL (≈ 54 µM)	2.6 µg/mL (≈ 4.81 µM)	EC50 (Rhinovirus; read-out: Antiviral Activities (EC50) Rhinovirus (virus yield)): 4 µg/mL (≈ 7.39 µM)
CCCc1cc(=O)oc2c3c(c4c(c12)OC(C)(C)C=C4)O[C@H](C)[C@@H](C)[C@@H]3O [(+)-calanolide A, (+)-Calanolide A]											protection against the cytopathic effects of HIV-1 (HIV-1; down to a concentration of 0.1 μM): 100%; EC50 (HIV-1; human T-lymphoblastic cells (CEM-SS), read-out: EC50, HIV-1 replication in CEM-SS): 0.1 µM; activity against pyridinone-resistant A17 virus [2]: active; IC50 [3]: 20 µM; activity against AZT-resistant G-9106 strain of HIV [4]: active
CCCc1cc(=O)oc2cc(OC(=O)C(C)(C)C)cc(O)c12 [Compound 7b, 5-Hydroxy-7-pivaloyloxy-4-propylcoumarin]											melting point: 158 to 160 °C
